Read-outs that look alike come from different tables or passages of the source. Marks after values point to notes of the source that are not given here.
Assays:
[1] = system: Li-Pilo model of status epilepticus; test: Ability to block benzodiazepine-resistant status epilepticus in the Li-Pilo model; format: in vivo, male Sprague Dawley rats
Protocol: At the conclusion of the behavioral observation period, a 3 mL injection of lactated Ringer's solution is administered to all surviving rats to replace any SE-induced fluid loss.
All animals in the study are retained for 24 hours following completion of the study for assessment of weight change.
Additional measures of effects, e.g., motor impairment, weight change post-SE, or survival from SE for 24 hrs are also recorded during the studies for all treatment conditions.

[2] = human, in vivo, po
[3] = for Fe: geometric mean N=10
[4] = patients with a history of drug abuse; cited from earlier work
[5] = three-month efficacy study, insomnia; cited from earlier work
[6] = 0.5 mg/kg i.p. 30 min after first convulsive seizure, rats
[7] = 2 mg/kg i.p. 30 min after first convulsive seizure, rats
[8] = 5 mg/kg i.p. 30 min after first convulsive seizure, rats
[9] = 10 mg/kg i.p. 30 min after first convulsive seizure, rats
[10] = 20 mg/kg i.p. 30 min after first convulsive seizure, rats

Compound | Protection (includes PK rats), percent [1, 6] | Protection (includes PK rats), protected/total [1, 6] | 24-hour Survival (excludes PK rats), percent ([1]; 0.5 mg/kg i.p., rats) | 24-hour Survival (excludes PK rats), survivors/total ([1]; 0.5 mg/kg i.p., rats) | Protection (includes PK rats), percent [1, 7] | Protection (includes PK rats), protected/total [1, 7] | 24-hour Survival (excludes PK rats), percent ([1]; 2 mg/kg i.p., rats) | 24-hour Survival (excludes PK rats), survivors/total ([1]; 2 mg/kg i.p., rats) | Protection (includes PK rats), percent [1, 8] | Protection (includes PK rats), protected/total [1, 8] | 24-hour Survival (excludes PK rats), percent ([1]; 5 mg/kg i.p., rats) | 24-hour Survival (excludes PK rats), survivors/total ([1]; 5 mg/kg i.p., rats) | Protection (includes PK rats), percent [1, 9] | Protection (includes PK rats), protected/total [1, 9] | 24-hour Survival (excludes PK rats), percent ([1]; 10 mg/kg i.p., rats) | 24-hour Survival (excludes PK rats), survivors/total ([1]; 10 mg/kg i.p., rats) | Protection (includes PK rats), percent [1, 10] | Protection (includes PK rats), protected/total [1, 10] | 24-hour Survival (excludes PK rats), percent ([1]; 20 mg/kg i.p., rats) | 24-hour Survival (excludes PK rats), survivors/total ([1]; 20 mg/kg i.p., rats) | other results
CC(=O)[C@H]1CC[C@H]2[C@@H]3CC[C@H]4C[C@](C)(O)CC[C@]4(C)[C@H]3CC[C@]12C [GNX, ganaxolone] | (0%) | 0/13 | (60%) | 6/10 | (0%) | 0/13 | (80%) | 8/10 | (0%) | 0/13 | (70%) | 7/10 | (7.7%) | 1/13 | (90%) | 9/10 | (30.8%)* | 4/13 | (90%) | 9/10 | Improvement in protection, in words ([1]; 20 mg/kg i.p., dose-dependent efficacy): significant (p<0.02) improvement in protection
CC(=O)[C@H]1CC[C@H]2[C@@H]3CC[C@H]4C[C@H](O)CC[C@]4(C)[C@H]3CC[C@]12C [ALLO, allopregnanolone] | (0%) | 0/13 | (60%) | 6/10 | (0%) | 0/13 | (70%) | 7/10 | (0%) | 0/13 | (72%) | 7/9 | (15%) | 2/13 | (90%) | 9/10 | (7.7%) | 1/13 | (90%) | 9/10 | 
CCN(CC)CCN1C(=O)CN=C(c2ccccc2F)c2cc(Cl)ccc21 [Flurazepam, flurazepam] |  |  |  |  |  |  |  |  |  |  |  |  |  |  |  |  |  |  |  |  | Residual effect on primary endpoints Choice Reaction Time and Critical Flicker Fusion [2]: showed significant effect
Oc1noc2c1CCNC2 [gaboxadol, 4,5,6,7-tetrahydroisoxazolo [5,4-c] pyridine-3-ol] |  |  |  |  |  |  |  |  |  |  |  |  |  |  |  |  |  |  |  |  | 24-hour survival, in words ([1]; 10 mg/kg, rats): Significant improvements in 24-hour survival; Dose-response profile of protection, in words ([1]; i.p., p=0.071 at 0.5 mg/kg): Potential for inverted U-response profile; Residual effect on primary endpoints Choice Reaction Time and Critical Flicker Fusion [2]: did not show residual effect; Residual effects on other measurements (MSLT, DSST, Tracking, Memory tests, Body Sway, Leeds Sleep Evaluation Questionnaire) [2]: did not show any signs of residual effects; Fe ([3]; 2.5 mg single oral dose): 43%; Fe ([3]; 5 mg single oral dose): 45%; Fe ([3]; 10 mg I.V.): 53%; Fe ([3]; 10 mg Oral): 53%; Fe ([3]; 15 mg single oral dose): 50%; Fe ([3]; 20 mg single oral dose): 53%; CL (in CL/F row) ([3]; human, in vivo, iv, 10 mg): 438 mL/min; AUC0-∞ Slope (dose proportionality assessment) ([3]; human, in vivo, po): 0.98; Cmax Slope (dose proportionality assessment) ([3]; human, in vivo, po): 0.95; CL/F ([3]; human, in vivo, po, 2.5 mg): 461 mL/min; CL/F ([3]; human, in vivo, po, 5 mg): 488 mL/min; CL/F ([3]; human, in vivo, po, 10 mg): 476 mL/min; CL/F ([3]; human, in vivo, po, 15 mg): 469 mL/min; CL/F ([3]; human, in vivo, po, 20 mg): 499 mL/min; Psychiatric adverse events [4]: steep increase in psychiatric adverse events; Effects in sleep onset and sleep maintenance [5]: failed to show significant effects

Reference: US11918563B1, “Methods and compositions for treatment of epileptic disorders” (Ovid Therapeutics Inc., priority 2016, dated 2024)
